From EP1311531B1, “STEROID DERIVED ANTIBIOTICS” (Brigham Young University, priority 2000, dated 2002)
Values after ≈ are worked out from the molar mass of the structure shown. Read-outs that look alike come from different tables or passages of the source.

Tests used:
E. coli (ATCC 10798) = test: Sensitization to erythromycin or novobiocin (outer membrane permeabilization, FIC); format: cell-based, Escherichia coli; details: E. coli (ATCC 10798); for MBC: Escherichia coli; for concentration required to lower the MIC of erythromycin from 70 µg/mL to 1 µg/mL: Table 2
Protocol: FICs can be performed by checkerboard titrations of compounds in one dimension of a microtiter plate, and of antibiotics in the other dimension, for example. The FIC is calculated by looking at the impact of one antibiotic on the MIC of the other and vice versa. […] Preferably, an FIC of less than 0.5 is obtained for synergism. As used herein, FIC can be determined as follows: FIC = (MIC(compound in combination))/(MIC(compound alone)) + (MIC(antibiotic in combination))/(MIC(antibiotic alone)) [formula]
(§1) Aliquots of 1 mL of the suspension were added to test tubes containing 1 mL TSB and incrementally varied concentrations of cholic acid derivatives and/or erythromycin or novobiocin. In the sensitization experiments, erythromycin or novobiocin were added 15 minutes later than the cholic acid derivatives. The samples were subjected to stationary incubation at 37°C for 24 hours. Sample turbidity was determined by measuring absorption at 760 nm (HP 8453 UV-Visible Chemstation, Hewlett Packard). Additionally, an alliquot from each of the samples showing no measurable turbidity was subcultured on TSA plates (alliquots were diluted to provide fewer than 300 CFU). Colonies that grew on the subculture after overnight incubation were counted and the number of CFU/mL in the samples were calculated. The calculated values were compared to the number of CFU/mL in the original inoculum.
They were also tested for the ability to permeabilize the outer membrane of Gram-negative bacteria, causing sensitization to hydrophobic antibiotics that cannot cross the outer membrane. The permeabilization of the outer membrane was measured using erythromycin and novobiocin.

[1] = tested on: Escherichia coli ATCC 25922; test: MIC and MBC measurement; format: cell-based; details: Escherichia coli; for MIC: read-out: MIC
Source text: (§2) General: Microorganisms. Reference strains were purchased from the American Type Culture Collection (Rockville, MD) or Bactrol disks from Difeo Laboratories (Detroit, MI). The following specific ATCC strains were used: 10798 Escherichia coli, 25922 Escherichia coli, 13883 Klebsiella pneumoniae, 27853 Pseudomonas aeruginosa, 14028 Salmonella typhimurium, 29212 Enterococcus faecalis, 25923 Staphylococcus aureus, 19615 Streptococcus pyogenes, and 90028 Candida albicans. Bacterial strains were maintained on Mueller-Hinton agar plates, and Candida albicans was maintained on Sabouraud Dextrose agar plates.
(§3) Tryptic soy broth (TSB) was made by dissolving 27.5 grams of tryptic soy broth without dextrose (DIFCO Laboratories) in 1 liter of deionized water and sterilizing at 121 °C for 15 minutes. Solid agar (TSA) plates were made by dissolving 6.4 grams of tryptic soy broth and 12 grams of agar (purified grade, Fischer Scientific) in 800 mL of deionized water and sterilizing at 121 °C for 20 minutes. Aliquots (20 mL) of the homogeneous solution were then poured in sterile plastic petri dishes (100 x 15 mm, Fisher Scientific). Solutions of compounds were made by dissolving the HCl salt of the respective compound into an appropriate amount of deionized and sterilized water followed by microfiltration.
as §1, with “inoculum. […]” for “inoculum.”

[2] = tested on: Staphylococcus aureus ATCC 25923; test: MIC and MBC measurement; format: cell-based; details: ATCC25923, Table 10, Staphylococcus aureus ATCC 25923; for MIC: read-out: MIC
Source text: as §2, §3
as §1, with “inoculum. […]” for “inoculum.”

[3] = tested on: Klebsiella pneumonia ATCC 13883; test: MIC and MBC measurement; format: cell-based; details: Klebsiella pneumoniae, ATCC13883
Protocol: (§4) General: Microorganisms. Reference strains were purchased from the American Type Culture Collection (Rockville, MD) or Bactrol disks from Difeo Laboratories (Detroit, MI). […] Bacterial strains were maintained on Mueller-Hinton agar plates, and Candida albicans was maintained on Sabouraud Dextrose agar plates.
(§5) Aliquots (20 mL) of the homogeneous solution were then poured in sterile plastic petri dishes (100 x 15 mm, Fisher Scientific). Solutions of compounds were made by dissolving the HCl salt of the respective compound into an appropriate amount of deionized and sterilized water followed by microfiltration.
as §1, with “In the sensitization experiments, erythromycin or novobiocin were added 15 minutes later than the cholic acid derivatives. The samples were subjected to stationary incubation at 37°C for 24 hours. Sample turbidity was determined by measuring absorption at 760 nm (HP 8453 UV-Visible Chemstation, Hewlett Packard).” left out

[4] = tested on: Pseudomonas aeruginosa ATCC 27853; test: MIC and MBC measurement; format: cell-based
Protocol: as §4, §5
as §1, with “In the sensitization experiments, erythromycin or novobiocin were added 15 minutes later than the cholic acid derivatives. The samples were subjected to stationary incubation at 37°C for 24 hours. Sample turbidity was determined by measuring absorption at 760 nm (HP 8453 UV-Visible Chemstation, Hewlett Packard).” left out

[5] = tested on: Salmonella typhimurium ATCC 14028; test: MIC and MBC measurement; format: cell-based; details: Salmonella enterica
Protocol: as §4, §5
as §1, with “In the sensitization experiments, erythromycin or novobiocin were added 15 minutes later than the cholic acid derivatives. The samples were subjected to stationary incubation at 37°C for 24 hours. Sample turbidity was determined by measuring absorption at 760 nm (HP 8453 UV-Visible Chemstation, Hewlett Packard).” left out

[6] = tested on: Streptococcus pyogenes ATCC 19615; test: MIC and MBC measurement; format: cell-based; details: ATCC19615, Table 10
Protocol: as §4, §5
as §1, with “In the sensitization experiments, erythromycin or novobiocin were added 15 minutes later than the cholic acid derivatives. The samples were subjected to stationary incubation at 37°C for 24 hours. Sample turbidity was determined by measuring absorption at 760 nm (HP 8453 UV-Visible Chemstation, Hewlett Packard).” left out

[7] = tested on: Klebsiella pneumonia ATCC 13883; test: Sensitization to erythromycin, novobiocin or rifampicin (permeabilization, FIC); format: cell-based, Klebsiella pneumoniae
[8] = tested on: Enterococcus faeculis ATCC 29212; test: MIC and MBC measurement; format: cell-based, Enterococcus faecalis; details: ATCC29212
Protocol: as §4, §5
as §1, with “In the sensitization experiments, erythromycin or novobiocin were added 15 minutes later than the cholic acid derivatives. The samples were subjected to stationary incubation at 37°C for 24 hours. Sample turbidity was determined by measuring absorption at 760 nm (HP 8453 UV-Visible Chemstation, Hewlett Packard).” left out

[9] = tested on: Escherichia coli ATCC 25922; details: ATCC25922
[10] = tested on: Escherichia coli ATCC 25922; test: Sensitization to erythromycin, novobiocin or rifampicin (permeabilization, FIC); details: for MBC: Escherichia coli, ATCC25922; for concentration required to lower the MIC of erythromycin from 60 µg/mL to 1 µg/mL: Table 5, E. coli (ATCC 25922), with erythromycin; for FIC / concentration required for bacterial growth inhibition: Table 13, with rifampicin (order of b151), Escherichia coli ATCC 25922
[11] = ATCC10798, Table 2, with erythromycin
[12] = ATCC10798, Table 3, with novobiocin
[13] = ATCC25922, Table 4, E. coli (ATCC 25922)
[14] = ATCC25922, Table 10, Escherichia coli ATCC 25922
[15] = ATCC27853, Table 6, P. aureginosa (ATCC 27853)
[16] = ATCC27853, Table 10, Pseudomonas aeruginosa ATCC 27853
[17] = Table 12, with novobiocin (order of b151), Klebsiella pneumonia ATCC 13883
[18] = Table 13, with rifampicin (order of b151), Klebsiella pneumonia ATCC 13883

Compound | MBC (E. coli (ATCC 10798); [11]) [µg/mL] | MBC (E. coli (ATCC 10798); [12]) [µg/mL] | concentration required to lower the MIC of erythromycin from 70 µg/mL to 1 µg/mL (E. coli (ATCC 10798); with erythromycin) [µg/mL] | MBC [1, 13] [µg/mL] | MIC [1, 13] [µg/mL] | MBC [1, 14] [µg/mL] | MIC [1, 14] [µg/mL] | MBC [2] [µg/mL] | MIC [2] [µg/mL] | MBC [3] [µg/mL] | MIC [3] [µg/mL] | MBC [4, 15] [µg/mL] | MIC [4, 15] [µg/mL] | MBC [4, 16] [µg/mL] | MIC [4, 16] [µg/mL] | MBC [5] [µg/mL] | MIC [5] [µg/mL] | MBC [6] [µg/mL] | MIC [6] [µg/mL] | FIC ([7]; ATCC13883) | also measured
C[C@H](CCCN(C)Cc1ccccc1)[C@H]1CC[C@H]2[C@@H]3[C@H](OCCN)C[C@@H]4C[C@H](OCCN)CC[C@]4(C)[C@H]3C[C@H](OCCN)[C@]12C [Compound 1] | 20 | 34 | 2 | 40 (≈ 63.8 µM) | 25 (≈ 39.9 µM) | 22 (≈ 35.1 µM) | 22 (≈ 35.1 µM) | 5.7 (≈ 9.09 µM) | 3.1 (≈ 4.94 µM) | > 36 | 24 (≈ 38.3 µM) | > 50 | 15 (≈ 23.9 µM) | 38 (≈ 60.6 µM) | 26 (≈ 41.5 µM) | > 25 | 21 (≈ 33.5 µM) | 4.4 (≈ 7.02 µM) | 3 (≈ 4.78 µM) | 0.072 | concentration required for bacterial growth inhibition ([7]; ATCC13883): 1.0 µg/mL; concentration required for bacterial growth inhibition [7, 17]: 4.7 µg/mL; FIC [7, 18]: 0.043; concentration required for bacterial growth inhibition [7, 18]: 0.40 µg/mL; MBC [8]: 50 µg/mL (≈ 79.7 µM); MIC [8]: 4.9 µg/mL (≈ 7.82 µM); concentration required for bacterial growth inhibition [9]: 0.35 µg/mL; MBC [10]: 14 µg/mL; concentration required to lower the MIC of erythromycin from 60 µg/mL to 1 µg/mL [10]: 2 µg/mL; FIC [10]: 0.099; concentration required for bacterial growth inhibition [10]: 0.74 µg/mL
C[C@H](CCCN(C)Cc1ccccc1)[C@H]1CC[C@H]2[C@@H]3[C@H](OCCCN)C[C@@H]4C[C@H](OCCCN)CC[C@]4(C)[C@H]3C[C@H](OCCCN)[C@]12C [Compound 2] | 10 | 16 | 1 | 20 (≈ 29.9 µM) | 10 (≈ 14.9 µM) | 6.8 (≈ 10.2 µM) | 5.1 (≈ 7.62 µM) | 4.7 (≈ 7.02 µM) | 1 (≈ 1.49 µM) | 17 (≈ 25.4 µM) | 14 (≈ 20.9 µM) | 40 (≈ 59.8 µM) | 9 (≈ 13.5 µM) | > 17 | 11 (≈ 16.4 µM) | 16 (≈ 23.9 µM) | 13 (≈ 19.4 µM) | 2.3 (≈ 3.44 µM) | 2 (≈ 2.99 µM) | 0.048 | concentration required for bacterial growth inhibition ([7]; ATCC13883): 0.25 µg/mL; concentration required for bacterial growth inhibition [7, 17]: 0.49 µg/mL; FIC [7, 18]: 0.035; concentration required for bacterial growth inhibition [7, 18]: 0.12 µg/mL; MBC [8]: 19 µg/mL (≈ 28.4 µM); MIC [8]: 3.4 µg/mL (≈ 5.08 µM); concentration required for bacterial growth inhibition [9]: 0.33 µg/mL; MBC [10]: 5 µg/mL; concentration required to lower the MIC of erythromycin from 60 µg/mL to 1 µg/mL [10]: 1 µg/mL; FIC [10]: 0.22; concentration required for bacterial growth inhibition [10]: 0.80 µg/mL
